Laboratory results: ChEMBL document CHEMBL5634138, “Discovery of a novel BLT2 antagonist for the treatment of inflammatory airway diseases” (Eur J Med Chem, 2023)
Converted amounts (≈) assume the structure as drawn. The source made the active and inactive calls. The rule behind the calls is not given here.

Experiments:
CHO [1] = experiment: (§1) Cytotoxicity against CHO cells assessed as inhibition of cell growth at 10 uM incubated overnight by MTS assay reltive to control; format: toxicity, cell-based, Cricetulus griseus; conditions: chinese hamster, cho, 10 µM
[2] = as §1; format: toxicity, cell-based, Cricetulus griseus; conditions: chinese hamster, CHO cells, read-out: Activity
[3] = Tmax in rat at 20 mg/kg, po administered as solution; format: ADME, organism-based; conditions: in vivo
[4] = Clearance in rat at 2 mg/kg, iv; format: ADME, organism-based; conditions: in vivo
[5] = Cmax in rat at 20 mg/kg, po administered as suspension; format: ADME, organism-based; conditions: in vivo
[6] = Metabolic stability in mouse liver microsomes assessed as parent compound remaining measured after 30 mins in presence of […]; format: ADME, Microsome; conditions: read-out: Stability
Mus musculus [7] = experiment: Anti-asthmatic activity against OVA/LPS induced BALB/c mouse model assessed as decrease in bronchoalveolar lavage fluid (BALF) IL-5 level at 10 mg/kg, ip by ELISA method relative to control; format: functional; set-up: scale not given: the % may be the effect or the level left
Mus musculus [8] = experiment: Anti-asthmatic activity against OVA/LPS induced BALB/c mouse model assessed as decrease in bronchoalveolar lavage fluid (BALF) IL-5 level at 20 mg/kg, ip by ELISA method relative to control; format: functional; set-up: scale not given: the % may be the effect or the level left
Mus musculus [9] = experiment: Anti-asthmatic activity against OVA/LPS induced BALB/c mouse model assessed as reduction in bronchial hyper-response at 10 mg/kg, ip for one hr before every challenge on day 14 to 16 and measured after 17 days relative to control; format: functional; set-up: scale not given: the % may be the effect or the level left; conditions: time 17 day
Mus musculus [10] = experiment: Anti-asthmatic activity against OVA/LPS induced BALB/c mouse model assessed as decrease in bronchoalveolar lavage fluid (BALF) IL-13 level at 20 mg/kg, ip by ELISA method relative to control; format: functional; set-up: scale not given: the % may be the effect or the level left
[11] = Metabolic stability in human liver microsomes assessed as parent compound remaining measured after 30 mins in presence of […]; format: ADME, Microsome; conditions: read-out: Stability
[12] = Apparent volume of distribution in rat at 2 mg/kg, iv; format: ADME, organism-based; conditions: in vivo, read-out: Vd(app)
[13] = AUC infinity in rat at 20 mg/kg, po administered as suspension; format: ADME, organism-based; conditions: in vivo
[14] = molecular target: T1, Leukotriene B4 receptor 2 (Homo sapiens, UniProt Q9NPC1); experiment: Displacement of 3H-LTB4 from human BLT2 expressed in CHO cell membrane assessed as inhibition constant incubated for 60 mins by liquid scintillation counter analysis
T1 sequence (Q9NPC1 whole entry): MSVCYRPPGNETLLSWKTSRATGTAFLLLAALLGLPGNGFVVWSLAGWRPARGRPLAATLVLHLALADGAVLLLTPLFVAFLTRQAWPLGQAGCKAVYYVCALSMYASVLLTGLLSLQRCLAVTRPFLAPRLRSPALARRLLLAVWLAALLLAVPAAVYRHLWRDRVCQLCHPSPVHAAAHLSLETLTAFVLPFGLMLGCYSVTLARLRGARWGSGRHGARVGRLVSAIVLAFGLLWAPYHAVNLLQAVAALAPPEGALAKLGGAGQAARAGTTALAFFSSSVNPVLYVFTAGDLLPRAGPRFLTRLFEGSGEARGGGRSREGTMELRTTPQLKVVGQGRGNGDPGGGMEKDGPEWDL

[15] = Tmax in rat at 20 mg/kg, po administered as suspension; format: ADME, organism-based; conditions: in vivo
[16] = Metabolic stability in human liver microsomes assessed as parent compound remaining measured after 30 mins in absence of NADPH; format: ADME, Microsome; conditions: read-out: Stability
[17] = Oral bioavailability in rat at 20 mg/kg administered as suspension; format: ADME, organism-based; conditions: in vivo
Mus musculus [18] = experiment: Anti-asthmatic activity against OVA/LPS induced BALB/c mouse model assessed as decrease in bronchoalveolar lavage fluid (BALF) IL-4 level at 10 mg/kg, ip by ELISA method relative to control; format: functional; set-up: scale not given: the % may be the effect or the level left
[19] = Metabolic stability in human liver microsomes assessed as parent compound remaining measured after 30 mins in presence of NADPH; format: ADME, Microsome; conditions: read-out: Stability
[20] = Metabolic stability in human liver microsomes assessed as parent compound remaining measured after 30 mins in absence of […]; format: ADME, Microsome; conditions: read-out: Stability
Mus musculus [21] = experiment: Anti-asthmatic activity against OVA/LPS induced BALB/c mouse model assessed as decrease in bronchoalveolar lavage fluid (BALF) IL-4 level at 20 mg/kg, ip by ELISA method relative to control; format: functional; set-up: scale not given: the % may be the effect or the level left
[22] = Oral bioavailability in rat at 20 mg/kg administered as solution; format: ADME, organism-based; conditions: in vivo
[23] = Half life in rat at 2 mg/kg, iv; format: ADME, organism-based; conditions: in vivo
[24] = AUC infinity in rat at 2 mg/kg, iv; format: ADME, organism-based; conditions: in vivo
[25] = molecular target: Leukotriene B4 receptor 1 (Homo sapiens) (UniProt Q15722); experiment: Antagonist activity at human BLT1 expressed in CHO cells assessed as inhibition of LTB4 induced cell migration at 10 uM measured after 3 hrs by chemotaxis assay; format: cell-based
CHO [26] = experiment: Inhibition of Akt phosphorylation (unknown origin) expressed in CHO cells harbouring BLT2 by Western blot analysis; format: cell-based; conditions: Homo sapiens
Mus musculus [27] = experiment: Anti-asthmatic activity against OVA/LPS induced BALB/c mouse model assessed as decrease in bronchoalveolar lavage fluid (BALF) IL-13 level at 10 mg/kg, ip by ELISA method relative to control; format: functional; set-up: scale not given: the % may be the effect or the level left
[28] = Metabolic stability in mouse liver microsomes assessed as parent compound remaining measured after 30 mins in absence of NADPH; format: ADME, Microsome; conditions: read-out: Stability
[29] = Metabolic stability in mouse liver microsomes assessed as parent compound remaining measured after 30 mins in absence of […]; format: ADME, Microsome; conditions: read-out: Stability
[30] = Cmax in rat at 20 mg/kg, po administered as solution; format: ADME, organism-based; conditions: in vivo
[31] = Solubility of the compound in deionized water; format: physicochemical; conditions: buffer
[32] = Metabolic stability in mouse liver microsomes assessed as parent compound remaining measured after 30 mins in presence of NADPH; format: ADME, Microsome; conditions: read-out: Stability
[33] = AUC infinity in rat at 20 mg/kg, po administered as solution; format: ADME, organism-based; conditions: in vivo
[34] = molecular target: T2, Leukotriene B4 receptor 2 (Mus musculus) (UniProt Q9JJL9); experiment: Displacement of 3[H]LTB4 from mouse BLT2 by competitive binding assay; conditions: filed as agonist
T2 sequence (whole entry): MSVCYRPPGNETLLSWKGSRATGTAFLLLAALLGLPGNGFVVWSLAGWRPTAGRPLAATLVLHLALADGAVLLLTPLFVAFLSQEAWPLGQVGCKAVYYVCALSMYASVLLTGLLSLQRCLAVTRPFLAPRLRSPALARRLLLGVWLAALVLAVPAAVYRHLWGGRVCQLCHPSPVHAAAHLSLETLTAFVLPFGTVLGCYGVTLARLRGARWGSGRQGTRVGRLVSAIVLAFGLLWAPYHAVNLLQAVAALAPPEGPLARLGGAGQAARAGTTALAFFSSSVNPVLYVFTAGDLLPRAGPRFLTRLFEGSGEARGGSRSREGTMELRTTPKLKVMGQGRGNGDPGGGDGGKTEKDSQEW

[35] = molecular target: T3, Leukotriene B4 receptor 2 (Mus musculus, UniProt Q9JJL9); experiment: Agonist activity at mouse BLT2 expressed in CHO cells assessed as induction of calcium accumulation; format: functional, cell-based
T3 sequence (Q9JJL9 whole entry): T2 sequence (whole entry)

[36] = molecular target: Leukotriene B4 receptor 1 (Homo sapiens) (UniProt Q15722); experiment: Antagonist activity at human BLT1 expressed in CHO cells assessed as inhibition of LTB4 induced cell migration at 10 uM measured after 3 hrs by chemotaxis assay relative to control; format: cell-based; set-up: scale not given: the % may be the effect or the level left; conditions: filed as antagonist
CHO [37] = experiment: Inhibition of Akt phosphorylation (unknown origin) expressed in CHO cells harbouring BLT1 by Western blot analysis; format: cell-based; conditions: Homo sapiens

Sequence of Leukotriene B4 receptor 1 (Homo sapiens) (Q15722 whole entry): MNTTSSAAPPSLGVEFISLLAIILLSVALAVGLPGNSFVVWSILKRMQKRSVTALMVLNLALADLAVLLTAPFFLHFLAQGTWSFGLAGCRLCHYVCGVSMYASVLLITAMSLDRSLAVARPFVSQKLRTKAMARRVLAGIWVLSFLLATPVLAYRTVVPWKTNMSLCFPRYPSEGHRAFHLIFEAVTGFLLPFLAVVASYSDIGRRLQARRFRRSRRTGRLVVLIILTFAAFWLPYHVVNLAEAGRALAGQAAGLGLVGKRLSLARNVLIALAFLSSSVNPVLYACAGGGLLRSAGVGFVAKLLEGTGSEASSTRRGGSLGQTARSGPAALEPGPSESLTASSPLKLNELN

## CCCCC(=O)N(Cc1ccc(-c2ccc(OC)cc2)cc1)c1ccccc1
CHO [1]
  Activity: Non-Toxic

## CCCCC(=O)N(Cc1ccc(-c2ccc(OC)cc2)cc1)c1cccc(C)c1
CHO [1]
  Activity: Non-Toxic

## CCCCC(=O)N(Cc1ccc(-c2ccccc2CCC(=O)O)cc1)c1ccccc1
[2]
  inhibition at 10 µM: 4%

## CCCCC(=O)N(Cc1ccc(-c2ccccc2CC(=O)O)cc1)c1ccccc1
[2]
  inhibition at 10 µM: 25%

## CCCCC(=O)N(Cc1ccc(-c2ccc(O)cc2)cc1)c1cccc(C(F)(F)F)c1
[2]
  inhibition at 10 µM: 5%

## CCCCC(=O)N(Cc1ccc(-c2ccc(OCC(=O)O)cc2)cc1)c1cccc(F)c1
[3]
  Tmax: 1 h
[4]
  clearance: 54 mL/min/kg
[5]
  Cmax: 700 ng/mL
[6]
  remaining at 0.5 h: 91.7%
Mus musculus [7]
  Activity: 33%
CHO [1]
  Activity: Non-Toxic
Mus musculus [8]
  Activity: 46%
Mus musculus [9]
  Activity: 59%
Mus musculus [10]
  Activity: 38%
[11]
  remaining at 0.5 h: 94%
[12]
  Vd: 4.2 L/kg
[13]
  AUC(0-inf): 1500 ng·h/mL
[14]
  Ki: 132 nM
[15]
  Tmax: 0.9 h
[16]
  remaining at 0.5 h: 98.1%
[17]
  bioavailability: 24%
Mus musculus [18]
  Activity: 25%
[19]
  remaining at 0.5 h: 74.5%
[20]
  remaining at 0.5 h: 98.8%
Mus musculus [21]
  Activity: 35%
[22]
  bioavailability: 35%
[23]
  half-life: 1.4 h
[24]
  AUC(0-inf): 600 ng·h/mL
[25]
  Activity: inactive
CHO [26]
  inhibition: Active
Mus musculus [27]
  Activity: 19%
[28]
  remaining at 0.5 h: 88.3%
[29]
  remaining at 0.5 h: 92.9%
[30]
  Cmax: 1100 ng/mL
[31]
  solubility: 0.033 µg/mL (≈ 0.0758 µM)
[32]
  remaining at 0.5 h: 67.8%
[33]
  AUC(0-inf): 2200 ng·h/mL

## CCCCC(=O)N(Cc1ccc(-c2ccc(OCC(=O)O)cc2)cc1)c1cccc(C(F)(F)F)c1
CHO [1]
  Activity: Non-Toxic

## CCCCC(=O)N(Cc1ccc(-c2ccc(OCC(=O)O)cc2)cc1)c1cccc(C)c1
CHO [1]
  Activity: Non-Toxic

## CCCCC(=O)N(Cc1ccc(-c2ccccc2C(=O)O)cc1)c1ccccc1
[34]
  Activity: 5 nM
[35]
  EC50: 20 nM

## CCCCC(=O)N(Cc1ccc(-c2ccc(C(=O)O)cc2)cc1)c1cccc(F)c1
CHO [1]
  Activity: Non-Toxic

## CCCCC(=O)N(Cc1ccc(-c2ccc(C(=O)O)cc2)cc1)c1ccc(F)cc1
CHO [1]
  Activity: Non-Toxic

## CCCCC(=O)N(Cc1ccc(-c2ccc(O)cc2)cc1)c1cccc(F)c1
[36]
  Activity: 90%
[6]
  remaining at 0.5 h: 70.1%
CHO [1]
  Activity: Non-Toxic
[11]
  remaining at 0.5 h: 92.8%
[16]
  remaining at 0.5 h: 96.8%
[19]
  remaining at 0.5 h: 33.5%
[20]
  remaining at 0.5 h: 98.8%
CHO [26]
  inhibition: Active
[28]
  remaining at 0.5 h: 84.2%
[29]
  remaining at 0.5 h: 90.4%
CHO [37]
  inhibition: Active
[31]
  solubility: < 0.02 µg/mL
[32]
  remaining at 0.5 h: 2.2%

## CCCCC(=O)N(Cc1ccc(-c2ccc(C(=O)NCC(=O)O)cc2)cc1)c1ccccc1
CHO [1]
  Activity: Non-Toxic

## CCCCC(=O)N(Cc1ccc(-c2ccc(C(=O)N3CCN(C)CC3)cc2)cc1)c1ccccc1
CHO [1]
  Activity: Non-Toxic

## CCCCC(=O)N(Cc1ccc(-c2ccc(OCC(=O)O)cc2)cc1)c1ccccc1
CHO [1]
  Activity: Non-Toxic
